US6875760B2 (Novo Nordisk A/S, priority 1999, dated 2005)
Like-named read-outs stand apart in the source and are kept apart here.

Molecular target: T1, cloned human glucagon receptor (Homo sapiens, UniProt P47871)
T1 construct: expressed in transfected cells; plasma membrane preparation
Test: Glucagon Binding Assay (II)
Conditions: read-out: displacement of the glucagon tracer when screened at 1 μM concentration in the glucagon binding assay II

[1] = screened at 1 μM, library compounds

T1 sequence (P47871 26-477): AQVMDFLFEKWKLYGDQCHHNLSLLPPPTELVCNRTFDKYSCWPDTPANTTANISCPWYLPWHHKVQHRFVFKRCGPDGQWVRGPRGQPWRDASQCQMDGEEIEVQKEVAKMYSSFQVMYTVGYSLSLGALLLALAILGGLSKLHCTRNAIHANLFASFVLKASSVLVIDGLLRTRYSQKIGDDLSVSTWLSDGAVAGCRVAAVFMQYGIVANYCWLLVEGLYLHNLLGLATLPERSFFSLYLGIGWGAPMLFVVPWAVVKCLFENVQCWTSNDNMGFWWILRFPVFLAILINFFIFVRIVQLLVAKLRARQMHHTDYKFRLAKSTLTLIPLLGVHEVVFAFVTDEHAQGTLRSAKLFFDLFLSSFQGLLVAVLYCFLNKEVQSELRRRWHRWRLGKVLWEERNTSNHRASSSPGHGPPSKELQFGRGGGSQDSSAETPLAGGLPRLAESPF

SMILES: O=C(O)CCNC(=O)c1ccc(CN(C(=O)Nc2ccc(OC(F)(F)F)cc2)c2ccc3nc(S)sc3c2)cc1 [Example 182, 3-{4-[1-(2-Mercaptobenzothiazol-6-yl)-3-(4-trifluoromethoxyphenyl)ureidomethyl]benzoylamino}propionic acid]
- inhibition at 1 µM [1]: > 50%

SMILES: O=C(O)CCNC(=O)c1ccc(CN(C(=O)Nc2ccc(Cl)c(C(F)(F)F)c2)c2ccc3nc(S)sc3c2)cc1 [Example 183, 3-{4-[3-(4-Chloro-3-trifluoromethylphenyl)-1-(2-mercaptobenzothiazol-6-yl)ureidomethyl]benzoylamino}propionic acid]
- inhibition at 1 µM [1]: > 50%

SMILES: O=C(O)CCNC(=O)c1ccc(CN(C(=O)Nc2ccc(C(=O)O)cc2)c2ccc3c(c2)OCO3)cc1 [Example 184, 4-{3-(Benzo[1,3]dioxo-5-yl)-3-[4-(2-carboxyethylcarbamoyl)benzyl]ureido}benzoic acid]
- inhibition at 1 µM [1]: > 50%

SMILES: O=C(O)CCNC(=O)c1ccc(CN(C(=O)Nc2ccc(Cl)c(C(F)(F)F)c2)c2ccc(C3CCCCC3)cc2)cc1 [Example 185, 3-{4-[3-(4-Chloro-3-trifluoromethylphenyl)-1-(4-cyclohexylphenyl)ureidomethyl]benzoylamino}propionic acid]
- inhibition at 1 µM [1]: > 50%

SMILES: Cc1cc(C)cc(NC(=O)N(Cc2ccc(C(=O)NCCC(=O)O)cc2)c2ccc(C3CCCCC3)cc2)c1 [Example 186, 3-{4-[1-(4-Cyclohexylphenyl)-3-(3,5-dimethylphenyl)ureidomethyl]benzoylamino}propionic acid]
- inhibition at 1 µM [1]: > 50%

SMILES: O=C(O)CCNC(=O)c1ccc(CN(Cc2ccc(Br)cc2)C(=O)Nc2ccc(Cl)c(C(F)(F)F)c2)cc1 [Example 190, 3-{4-[1-(4-Bromobenzyl)-3-(4-chloro-3-trifluoromethylphenyl)ureidomethyl]benzoylamino}propionic acid]
- inhibition at 1 µM [1]: > 50%

SMILES: O=C(O)CCNC(=O)c1ccc(CN(C(=O)Nc2ccc(Cl)c(C(F)(F)F)c2)c2ccc3c(c2)OC(F)(F)C(F)(F)O3)cc1 [Example 191, 3-{4-[3-(4-Chloro-3-trifluoromethyl-phenyl)-1-(2,2,3,3-tetrafluoro-2,3-dihydrobenzo[1,4]-dioxin-6-yl)ureidomethyl]benzoylamino}propionic acid]
- inhibition at 1 µM [1]: > 50%

SMILES: O=C(O)CCNC(=O)c1ccc(CN(C(=O)Nc2ccc(Cl)c(C(F)(F)F)c2)C2CCC(NC(=O)C(F)(F)F)CC2)cc1 (stereo not drawn) [Example 192, 3-(4-{3-(4-Chloro-3-trifluoromethylphenyl)-1-[4-(2,2,2-trifluoroacetylamino)cyclohexyl]ureidomethyl}benzoylamino)propionic acid]
- inhibition at 1 µM [1]: > 50%

SMILES: CC1CCCCN1CCCN(Cc1ccc(C(=O)NCCC(=O)O)cc1)C(=O)Nc1ccc(Cl)c(C(F)(F)F)c1 (stereo not drawn) [Example 193, 3-(4-{3-(4-Chloro-3-trifluoromethylphenyl)-1-[3-(2-methylpiperidin-1-yl)propyl]ureidomethyl}benzoylamino)propionic acid]
- inhibition at 1 µM [1]: > 50%

SMILES: CC(=O)N1CCc2cc(N(Cc3ccc(C(=O)NCCC(=O)O)cc3)C(=O)Nc3ccc(Cl)c(C(F)(F)F)c3)ccc21 [Example 194, 3-{4-[1-(1-Acetyl-2,3-dihydro-1H-indol-5-yl)-3-(4-chloro-3-trifluoromethylphenyl)ureidomethyl]benzoylamino}propionic acid]
- inhibition at 1 µM [1]: > 50%

SMILES: O=C(O)CCNC(=O)c1ccc(CN(C(=O)Nc2ccc(Cl)c(C(F)(F)F)c2)c2nc3cc(Cl)c(Cl)cc3[nH]2)cc1 [Example 195, 3-{4-[3-(4-Chloro-3-trifluoromethylphenyl)-1-(5,6-dichloro-1H-benzimidazol-2-yl)ureidomethyl]benzoylamino}propionic acid]
- inhibition at 1 µM [1]: > 50%

SMILES: CC(C)(C)C1CCC(N(Cc2ccc(C(=O)NCCC(=O)O)cc2)C(=O)Nc2ccc(C(=O)O)cc2)CC1 (stereo not drawn) [Example 196, 4-{3-(4-tert-Butylcyclohexyl)-3-[4-(2-carboxyethylcarbamoyl)benzyl]ureido}benzoic acid]
- inhibition at 1 µM [1]: > 50%

SMILES: Cc1cc(C)cc(NC(=O)N(Cc2ccc(C(=O)NCCC(=O)O)cc2)C2CCC(C(C)(C)C)CC2)c1 (stereo not drawn) [Example 197, 3-{4-[1-(4-tert-Butylcyclohexyl)-3-(3,5-dimethylphenyl)ureidomethyl]benzoylamino}propionic acid]
- inhibition at 1 µM [1]: > 50%

SMILES: CC(C)(C)C1CCC(N(Cc2ccc(OCCCC(=O)O)cc2)C(=O)Nc2cccc(SC(F)(F)F)c2)CC1 (stereo not drawn) [Example 198, 4-{4-[1-(4-tert-Butylcyclohexyl)-3-(3-trifluoromethylsulfanylphenyl)ureidomethyl]phenoxy}butyric acid]
- inhibition at 1 µM [1]: > 50%

SMILES: CC(C)(C)C1CCC(N(Cc2ccc(C(=O)NCCC(=O)O)cc2)C(=O)Nc2cccc(SC(F)(F)F)c2)CC1 (stereo not drawn) [Example 199, 3-{4-[1-(4-tert-Butylcyclohexyl)-3-(3-trifluoromethylsulfanylphenyl)ureidomethyl]benzoylamino}propionic acid]
- inhibition at 1 µM [1]: > 50%

SMILES: CCOc1ccc(NC(=O)N(Cc2ccc(C(=O)NCCC(=O)O)cc2)C2CCC(C(C)(C)C)CC2)cc1 (stereo not drawn) [Example 200, 3-{4-[1-(4-tert-Butylcyclohexyl)-3-(4-ethoxyphenyl)ureidomethyl]benzoylamino}propionic acid]
- inhibition at 1 µM [1]: > 50%

SMILES: O=C(O)CCNC(=O)c1ccc(CN(CCc2cccc(Cl)c2)C(=O)Nc2cccc(SC(F)(F)F)c2)cc1 [Example 201, 3-{4-[1-[2-(3-Chlorophenyl)ethyl]-3-(3-trifluoromethylsulfanylphenyl)ureidomethyl]benzoylamino}propionic acid]
- inhibition at 1 µM [1]: > 50%

SMILES: O=C(O)CCNC(=O)c1ccc(CN(C(=O)Nc2cccc(SC(F)(F)F)c2)c2ccc(C3CCCCC3)cc2)cc1 [Example 202, 3-{4-[1-(4-Cyclohexylphenyl)-3-(3-trifluoromethylsulfanylphenyl)ureidomethyl]benzoylamino}propionic acid]
- inhibition at 1 µM [1]: > 50%

SMILES: O=C(O)CCNC(=O)c1ccc(CN(C(=O)NCOc2ccc3ccccc3c2)c2ccc(C3CCCCC3)cc2)cc1 [Example 203, 3-{4-[1-(4-Cyclohexylphenyl)-3-(naphthalen-2-yloxymethyl)ureidomethyl]benzoylamino}propionic acid]
- inhibition at 1 µM [1]: > 50%

SMILES: CC1(C)C2CCC(CN(Cc3ccc(C(=O)NCCC(=O)O)cc3)C(=O)Nc3cccc(SC(F)(F)F)c3)C1C2 (stereo not drawn) [Example 204, 3-{4-[1-(6,6-Dimethylbicyclo[3.1.1]hept-2-ylmethyl)-3-(3-trifluoromethylsulfanylphenyl)ureidomethyl]benzoylamino}propionic acid]
- inhibition at 1 µM [1]: > 50%

SMILES: O=C(O)CCNC(=O)c1ccc(CN(C(=O)NCOc2ccc3ccccc3c2)c2ccc3c(c2)OC(F)(F)C(F)(F)O3)cc1 [Example 205, 3-{4-[3-(Naphthalen-2-yloxymethyl)-1-(2,2,3,3-tetrafluoro-2,3-dihydro-benzo[1,4]dioxin-6-yl)ureidomethyl]benzoylamino}propionic acid]
- inhibition at 1 µM [1]: > 50%

SMILES: CC(=O)N1CCc2cc(N(Cc3ccc(C(=O)NCCC(=O)O)cc3)C(=O)NCOc3ccc4ccccc4c3)ccc21 [Example 206, 3-{4-[1-(1-Acetyl-2,3-dihydro-1H-indol-5-yl)-3-(naphthalen-2-yloxymethyl)ureidomethyl]benzoylamino}propionic acid]
- inhibition at 1 µM [1]: > 50%

SMILES: CN(CCN(Cc1ccc(C(=O)NCCC(=O)O)cc1)C(=O)Nc1cccc(SC(F)(F)F)c1)C(=O)OC(C)(C)C [Example 207, 3-{4-[1-[2-(N-tert-Butoxycarbonyl-N-methylamino)ethyl]-3-(3-trifluoromethylsulfanylphenyl)ureidomethyl]benzoylamino}propionic acid]
- inhibition at 1 µM [1]: > 50%

SMILES: CC(C)(C)C1CCC(N(Cc2ccc(C(=O)NCCC(=O)O)cc2)C(=O)NC(=O)Oc2ccccc2)CC1 (stereo not drawn) [Example 208, 3-{4-[1-(4-tert-Butylcyclohexyl)-3-(phenoxycarbonyl)ureidomethyl]benzoylamino}propionic acid]
- inhibition at 1 µM: > 50%

SMILES: CN1C(=O)c2ccc(NC(=O)N(Cc3ccc(C(=O)NCCC(=O)O)cc3)C3CCC(C(C)(C)C)CC3)cc2C1=O (stereo not drawn) [Example 209, 3-{4-[1-(4-tert-Butylcyclohexyl)-3-(2-methyl-1,3-dioxo-2,3-dihydro-1H-isoindol-5-yl)ureidomethyl]benzoylamino}propionic acid]
- inhibition at 1 µM [1]: > 50%

SMILES: O=C(O)CCNC(=O)c1ccc(CN(C(=O)Nc2cccc(SC(F)(F)F)c2)c2ccc(C3CCCCC3)cc2)o1 [Example 210, 3-({5-[1-(4-cyclohexylphenyl)-3-(3-trifluoromethylsulfanylphenyl)ureidomethyl]furan-2-carbonyl}amino)propionic acid]
- inhibition at 1 µM [1]: > 50%

SMILES: CC(C)(C)C1CCC(N(Cc2ccc(C(=O)NCCC(=O)O)o2)C(=O)Nc2cccc(SC(F)(F)F)c2)CC1 (stereo not drawn) [Example 211, 3-({5-[1-(4-tert-Butylcyclohexyl)-3-(3-trifluoromethylsulfanylphenyl)ureidomethyl]furan-2-carbonyl}amino)propionic acid]
- inhibition at 1 µM [1]: > 50%

SMILES: O=C(O)CCNC(=O)c1ccc(CN(C(=O)Nc2ccc(Cl)c(C(F)(F)F)c2)c2ccc(C3CCCCC3)cc2)o1 [Example 212, 3-({5-[3-(4-Chloro-3-trifluoromethylphenyl)-1-(4-cyclohexylphenyl)ureidomethyl]furan-2-carbonyl}amino)propionic acid]
- inhibition at 1 µM [1]: > 50%

SMILES: CC(C)(C)C1CCC(N(Cc2ccc(C(=O)NCCC(=O)O)o2)C(=O)Nc2ccc(Cl)c(C(F)(F)F)c2)CC1 (stereo not drawn) [Example 213, 3-({5-[1-(4-tert-Butylcyclohexyl)-3-(4-chloro-3-trifluoromethylphenyl)ureidomethyl]furan-2-carbonyl}amino)propionic acid]
- inhibition at 1 µM [1]: > 50%

SMILES: CC1(C)C2CCC(CN(Cc3ccc(OCCCC(=O)O)cc3)C(=O)Nc3ccc(OC(F)(F)F)cc3)C1C2 (stereo not drawn) [Example 214, 4-{4-[1-(6,6-Dimethylbicyclo[3.1.1]hept-2-ylmethyl)-3-(4-trifluoromethoxyphenyl)ureidomethyl]phenoxy}butyric acid]
- inhibition at 1 µM [1]: > 50%
